According to patent publication US20220202783A1, “Use Of ADAM9 Inhibitor As Immunomodulator” (China Medical University, priority 2019, published 2022):

Experiments:
Format in all cases: cell-based
Design in all cases: key to effect of inhibiting tumor cell growth: “+” represents that the compound has the effect of inhibiting tumor cell growth
[1] = system: lung cancer cells (Bm7brmx2-2nd); assay: cytotoxicity assay in Bm7brmx2-2nd cells
Procedure: (§1) Please refer to FIG. 1A, FIG. 1B and Table 2, which show the analysis results of the compound of Formula (I) inhibiting ADAM9 activity. In FIG. 1A, Bm7 lung cancer cells were treated with the derivatives of the compound 6X-0310, and then cultured under anchorage-free culture condition. The expressions of ADAM9 and CDCP1 in Bm7 lung cancer cells were detected by Western blot, in which EF1α is an internal control, and mock represents Bm7 lung cancer cells without treatment. […] In the experiment, the compounds of Formula (I) of Example 1 to Example 32 were further performed cytotoxicity assay to measure the IC50 value of the compounds of Formula (I) of the present disclosure in lung cancer cell lines.

[2] = system: lung cancer cells (Bm7brmx2-1st); assay: cytotoxicity assay in Bm7brmx2-1st cells
Procedure: as §1

[3] = cytotoxicity assay in 293 cells; conditions: 293
[4] = system: kidney cancer cells (293); assay: cytotoxicity assay in 293 cells; conditions: Homo sapiens, HEK293
lung cancer cells (TC1) = assay: cytotoxicity assay in TC1 cells; conditions: for IC50: TC-1
Procedure: as §1

[5] = system: lung cancer cells (Bm7brmx2); assay: cytotoxicity assay in Bm7brmx2 cells
Procedure: as §1

lung cancer cells (A549) = assay: cytotoxicity assay in A549 cells; conditions: for IC50: Homo sapiens
Procedure: as §1

[6] = system: lung cancer cells (H1299); assay: cytotoxicity assay in H1299 cells; conditions: for effect of inhibiting tumor cell growth: H1299; for IC50: Homo sapiens, NCI-H1299
Procedure: as §1

[7] = cytotoxicity assay in HNOF cells; conditions: human, HNOF cells
HNOF = assay: cytotoxicity assay in HNOF cells; conditions: HNOF

SMILES	IC50 [1] [µM]	effect of inhibiting tumor cell growth [1]	IC50 [2] [µM]	effect of inhibiting tumor cell growth [2]	effect of inhibiting tumor cell growth [3]	IC50 [4] [µM]	effect of inhibiting tumor cell growth (lung cancer cells (TC1))	IC50 (lung cancer cells (TC1)) [µM]	IC50 [5] [µM]	effect of inhibiting tumor cell growth [5]	effect of inhibiting tumor cell growth (lung cancer cells (A549))	IC50 (lung cancer cells (A549)) [µM]	effect of inhibiting tumor cell growth [6]	IC50 [6] [µM]	IC50 [7] [µM]	effect of inhibiting tumor cell growth (HNOF)
O=C1c2ccccc2C(=O)N1CCc1csc(Nc2ccc(Cl)c(Cl)c2)n1 [2X-0336]	63	+	37.6	+	+	58.7	+	55.9	117	+	+	128	+	101	80	+
N#C/C(=C/c1ccc(OCc2ccccc2)cc1)c1nc(CCN2C(=O)c3ccccc3C2=O)cs1 [4X-0301]	310	+	61.2	+	+	49.5	+	71.9	128	+	+	161	+	102	77.6	+
N#C/C(=C/c1cccc(C(F)(F)F)c1)c1nc(CCN2C(=O)c3ccccc3C2=O)cs1 [4X-0302]	434	+	520	+	+	55.7	+	125	852	+	+	116	+	190	152	+
CC(C)CN1CCCc2cc(/C=C(\C#N)c3nc(CCN4C(=O)c5ccccc5C4=O)cs3)ccc21 [4X-0311]	86.6	+	34.4	+	+	62.9	+	345	60.6	+	+	238	+	> 125	80.7	+
N#C/C(=C\c1ccccc1Oc1ccc(Cl)cc1Cl)c1nc(CCN2C(=O)c3ccccc3C2=O)cs1 [4X-0312]	491	+	63.4	+	+	134	+	136	301	+	+	644	+	121	262	+
N#C/C(=C\c1ccncc1)c1nc(CCN2C(=O)c3ccccc3C2=O)cs1 [4X-0314]	15700	+	1420	+	+	269	+	176	202	+	+	527	+	38400	153	+
COc1ccc(C(=O)Nc2nc(CCN3C(=O)c4ccccc4C3=O)cs2)cc1OC [5X-0314]	90.6	+	51	+	+	49.3	+	202	66.5	+	+	184	+	116	85.7	+
O=C(Nc1nc(CCN2C(=O)c3ccccc3C2=O)cs1)c1ccc([N+](=O)[O-])cc1 [6X-0202]	1270	+	68.6	+	+	47.6	+	125	> 125	+	+	766	+	335	78.3	+
N#C/C(=C/c1cc([N+](=O)O)ccc1Sc1ccccn1)c1nc(CCN2C(=O)c3ccccc3C2=O)cs1 [6X-0229]	113	+	56.2	+	+	133	+	167	374	+	+	109	+	171	145	+
O=C1c2ccccc2C(=O)N1CCc1csc(OCc2cc(F)c(F)c(F)c2)n1 [13W-0300]		+		+	+		+			+	+		+			+
O=C1c2ccccc2C(=O)N1CCc1csc(SCc2ccc(C(F)(F)F)cc2)n1 [13W-0301]		+		+	+		+			+	+		+			+
O=C(c1nc(CCN2C(=O)c3ccccc3C2=O)cs1)C(O)c1cc2ccccc2o1 (centres unmarked) [13W-0302]		+		+	+		+			+	+		+			+
O=C1c2ccccc2C(=O)N1CCc1csc(-c2cc3ccccc3[nH]2)n1 [13W-0303]		+		+	+		+			+	+		+			+
O=C1c2ccccc2C(=O)N1CCc1csc(N2C(=O)c3ccccc3C2=O)n1 [13W-0305]		+		+	+		+			+	+		+			+
O=C1c2ccccc2C(=O)N1CCc1csc(N2CCCCC2)n1 [13W-0306]		+		+	+		+			+	+		+			+
O=C1CCC(=O)C1c1nc(CCN2C(=O)c3ccccc3C2=O)cs1 [13W-0307]		+		+	+		+			+	+		+			+
